Measurements reported in US8236801B2, “2-aza-bicyclo[2.2.1]heptane derivatives” (Actelion Pharmaceuticals Ltd., priority 2008, dated 2012).
Where two headings read alike, the source gives them in different places.

Columns and labels:
[1] = biological target: T1, human orexin-2 receptor (Homo sapiens, UniProt O43614); assay: FLIPR calcium assay, antagonism of orexin-A in CHO cells expressing the human orexin-2 receptor; type: cell-based; conditions: read-out: OX2 IC50
T1 construct: expressed in transfected cells; host or cells: Chinese hamster ovary (CHO) cells, G418 selection
T1 sequence (O43614 1-444): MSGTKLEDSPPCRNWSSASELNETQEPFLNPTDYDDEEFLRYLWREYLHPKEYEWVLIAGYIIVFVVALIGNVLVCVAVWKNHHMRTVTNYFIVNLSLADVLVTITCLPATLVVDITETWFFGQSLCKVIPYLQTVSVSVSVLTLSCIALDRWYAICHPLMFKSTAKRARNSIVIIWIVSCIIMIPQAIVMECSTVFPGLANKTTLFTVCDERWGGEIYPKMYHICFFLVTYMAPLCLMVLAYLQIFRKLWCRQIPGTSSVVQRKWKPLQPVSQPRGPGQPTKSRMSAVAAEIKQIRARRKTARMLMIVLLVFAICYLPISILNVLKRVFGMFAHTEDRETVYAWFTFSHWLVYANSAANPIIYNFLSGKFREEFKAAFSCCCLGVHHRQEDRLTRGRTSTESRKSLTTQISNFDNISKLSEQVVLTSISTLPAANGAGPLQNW
Protocol: (§1) Chinese hamster ovary (CHO) cells expressing the human orexin-1 receptor and the human orexin-2 receptor, respectively, are grown in culture medium (Ham F-12 with L-Glutamine) containing 300 μg/ml G418, 100 U/ml penicillin, 100 μg/ml streptomycin and 10% heat inactivated fetal calf serum (FCS). The cells are seeded at 20′000 cells/well into 384-well black clear bottom sterile plates (Greiner). The seeded plates are incubated overnight at 37° C. in 5% CO2. Human orexin-A as an agonist is prepared as 1 mM stock solution in MeOH:water (1:1), diluted in HBSS containing 0.1% bovine serum albumin (BSA), NaHCO3: 0.375 g/l and 20 mM HEPES for use in the assay at a final concentration of 3 nM. Antagonists are prepared as 10 mM stock solution in DMSO, then diluted in 384-well plates, first in DMSO, then in HBSS containing 0.1% bovine serum albumin (BSA), NaHCO3: 0.375 g/l and 20 mM HEPES. On the day of the assay, 50 μl of staining buffer (HBSS containing 1% FCS, 20 mM HEPES, NaHCO3: 0.375 g/l, 5 mM probenecid (Sigma) and 3 μM of the fluorescent calcium indicator fluo-4 AM (1 mM stock solution in DMSO, containing 10% pluronic) is added to each well. The 384-well cell-plates are incubated for 50 min at 37° C. in 5% CO2 followed by equilibration at rt for 30-120 min before measurement. Within the Fluorescent Imaging Plate Reader (FLIPR2 or FLIPR Tetra, Molecular Devices), antagonists are added to the plate in a volume of 10 μl/well, incubated for 10 min and finally 10 μl/well of agonist is added. Fluorescence is measured for each well at 1 second intervals, and the height of each fluorescence peak is compared to the height of the fluorescence peak induced by 3 nM orexin-A with vehicle in place of antagonist. For each antagonist, the IC50 value (the concentration of compound needed to inhibit 50% of the agonistic response) is determined. Optimized conditions may be achieved by adjustment of pipetting speed and cell splitting regime. The calculated IC50 values of the compounds may fluctuate depending on the daily cellular assay performance. Fluctuations of this kind are known to those skilled in the art.

[2] = biological target: T2, human orexin-1 receptor (Homo sapiens, UniProt O43613); assay: FLIPR calcium assay, antagonism of orexin-A in CHO cells expressing the human orexin-1 receptor; type: cell-based; conditions: read-out: OX1 IC50
T2 construct: expressed in transfected cells; host or cells: Chinese hamster ovary (CHO) cells, G418 selection
T2 sequence (O43613 1-425): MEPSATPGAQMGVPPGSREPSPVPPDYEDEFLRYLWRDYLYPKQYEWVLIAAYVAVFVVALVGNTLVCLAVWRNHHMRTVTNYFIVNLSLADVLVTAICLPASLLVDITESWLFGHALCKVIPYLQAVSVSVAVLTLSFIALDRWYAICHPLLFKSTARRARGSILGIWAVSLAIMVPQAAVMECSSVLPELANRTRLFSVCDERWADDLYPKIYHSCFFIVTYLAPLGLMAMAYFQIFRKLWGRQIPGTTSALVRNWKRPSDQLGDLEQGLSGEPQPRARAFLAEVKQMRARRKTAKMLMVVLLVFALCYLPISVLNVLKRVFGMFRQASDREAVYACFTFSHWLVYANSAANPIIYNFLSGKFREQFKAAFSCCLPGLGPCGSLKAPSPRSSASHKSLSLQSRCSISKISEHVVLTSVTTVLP
Protocol: as §1

[3] = measured with FLIPR Tetra (marked *), geometric mean from n = 2 values
[4] = measured with FLIPR Tetra (marked *), 3 nM orexin-A, CHO cells
[5] = measured with FLIPR 2, 3 nM orexin-A, CHO cells

Row | IC50 [1, 4] [nM] | IC50 [2, 4] [nM] | SMILES | other results
1 | 19 | 707 | O=C(NC[C@@H]1[C@H]2CC[C@H](C2)N1C(=O)c1nccnc1-c1ccc2cc[nH]c2c1)c1cccc2ncsc12 [Example 109, Benzothiazole-7-carboxylic acid {(1R,3S,4S)-2-[3-(1H-indol-6-yl)-pyrazine-2-carbonyl]-2-aza-bicyclo[2.2.1]hept-3-ylmethyl}-amide] | –
2 | 15 | 80 | COc1nc(C(=O)N2[C@@H]3CC[C@@H](C3)[C@H]2CNC(=O)c2cccc3ncsc23)c(-c2cccc(Cl)c2)s1 [Example 80, Benzothiazole-7-carboxylic acid {(R,S,S)-2-[5-(3-chloro-phenyl)-2-methoxy-thiazole-4-carbonyl]-2-aza-bicyclo[2.2.1]hept-3-ylmethyl}-amide] | –
3 | 61 | 307 | CN(C)c1nc(C(=O)N2[C@@H]3CC[C@@H](C3)[C@H]2CNC(=O)c2nn(C)c3ccccc23)c(-c2ccccc2)s1 [Example 63, 1-Methyl-1H-indazole-3-carboxylic acid [(1R,3S,4S)-2-(2-dimethylamino-5-phenyl-thiazole-4-carbonyl)-2-aza-bicyclo[2.2.1]hept-3-ylmethyl]-amide] | –
4 | 55 | 138 | Cc1nc2sccn2c1C(=O)NC[C@@H]1[C@H]2CC[C@H](C2)N1C(=O)c1nc(C2CC2)sc1-c1ccccc1 [Example 31, 6-Methyl-imidazo[2,1-b]thiazole-5-carboxylic acid [(1R,3S,4S)-2-(2-cyclopropyl-5-phenyl-thiazole-4-carbonyl)-2-aza-bicyclo[2.2.1]hept-3-ylmethyl]-amide] | –

The remaining lines, values behind:

Row | SMILES | IC50 [1, 4] [nM] | IC50 [2, 4] [nM] | other results
5 | COc1cccc(-c2sc(N(C)C)nc2C(=O)N2[C@@H]3CC[C@@H](C3)[C@H]2CNC(=O)c2cccc3ncsc23)c1 [Example 97, Benzothiazole-7-carboxylic acid {(1R,3S,45)-2-[2-dimethylamino-5-(3-methoxy-phenyl)-thiazole-4-carbonyl]-2-aza-bicyclo[2.2.1]hept-3-ylmethyl}-amide] | – | – | IC50 [1, 3]: 14 nM; IC50 [2, 3]: 12 nM
6 | O=C(NC[C@@H]1[C@H]2CC[C@H](C2)N1C(=O)c1sccc1-c1ccc2c(c1)OCO2)c1cccc2ncsc12 [Example 94, Benzothiazole-7-carboxylic acid [(1R,3S,4S)-2-(3-benzo[1,3]dioxol-5-yl-thiophene-2-carbonyl)-2-aza-bicyclo[2.2.1]hept-3-ylmethyl]-amide] | 81 | 1270 | –
7 | O=C(NC[C@H]1[C@@H]2CC[C@@H](C2)N1C(=O)c1nc(N2CCCC2)sc1-c1ccccc1F)c1cccc2ncsc12 [Example 110, Benzothiazole-7-carboxylic acid {(1S,3R,4R)-2-[5-(2-fluoro-phenyl)-2-pyrrolidin-1-yl-thiazole-4-carbonyl]-2-aza-bicyclo[2.2.1]hept-3-ylmethyl}-amide] | 30 | 23 | –
8 | Cc1nc(C(=O)N2[C@@H]3CC[C@@H](C3)[C@H]2CNc2ncc(Br)cn2)c(-c2ccccc2)s1 [Example 46, {(1R,3S,4S)-3-[(5-Bromo-pyrimidin-2-ylamino)-methyl]-2-aza-bicyclo[2.2.1]hept-2-yl}-(2-methyl-5-phenyl-thiazol-4-yl)-methanone] | 364 | 488 | –
9 | CCn1nc(C)cc1C(=O)NC[C@@H]1[C@H]2CC[C@H](C2)N1C(=O)c1ccccc1-c1ccccc1 [Example 40, 2-Ethyl-5-methyl-2H-pyrazole-3-carboxylic acid [(1R,3S,4S)-2-(biphenyl-2-carbonyl)-2-aza-bicyclo[2.2.1]hept-3-ylmethyl]-amide] | – | – | IC50 [1, 5]: 441 nM; IC50 [2, 5]: > 10000 nM
10 | Cc1ncc(C(=O)N2[C@@H]3CC[C@@H](C3)[C@H]2CNC(=O)c2cccc3occc23)c(-c2ccccc2)n1 [Example 11, Benzofuran-4-carboxylic acid [(1R,3S,4S)-2-(2-methyl-4-phenyl-pyrimidine-5-carbonyl)-2-aza-bicyclo[2.2.1]hept-3-ylmethyl]-amide] | – | – | IC50 [1, 5]: 2140 nM; IC50 [2, 5]: 75 nM
11 | Cc1nc2c(C(=O)NC[C@@H]3[C@H]4CC[C@H](C4)N3C(=O)c3nc(N(C)C)sc3-c3cccc(F)c3)cccc2o1 [Example 79, 2-Methyl-benzooxazole-4-carboxylic acid {(1R,3S,4S)-2-[2-dimethylamino-5-(3-fluoro-phenyl)-thiazole-4-carbonyl]-2-aza-bicyclo[2.2.1]hept-3-ylmethyl}-amide] | – | – | IC50 [1, 3]: 71 nM; IC50 [2, 3]: 64 nM
12 | Nc1nc(C(=O)N2[C@@H]3CC[C@@H](C3)[C@H]2CNC(=O)c2cccc3c2OCCO3)c(-c2cccc(F)c2)s1 [Example 5, 2,3-Dihydro-benzo[1,4]dioxine-5-carboxylic acid {(1R,3S,4S)-2-[2-amino-5-(3-fluoro-phenyl)-thiazole-4-carbonyl]-2-aza-bicyclo[2.2.1]hept-3-ylmethyl}-amide] | – | – | IC50 [1, 5]: 29 nM; IC50 [2, 5]: 149 nM
13 | CN(C)c1nc(C(=O)N2[C@@H]3CC[C@@H](C3)[C@H]2CNC(=O)c2nsc3ccccc23)c(-c2cccc(F)c2)s1 [Example 105, Benzo[d]isothiazole-3-carboxylic acid {(1R,3S,4S)-2-[2-dimethylamino-5-(3-fluoro-phenyl)-thiazole-4-carbonyl]-2-aza-bicyclo[2.2.1]hept-3-ylmethyl}-amide] | 421 | 65 | –
14 | Cc1nc(C(=O)N2[C@@H]3CC[C@@H](C3)[C@H]2CNC(=O)c2cccc3ncsc23)c(-c2cccc(OC(F)(F)F)c2)o1 [Example 104, Benzothiazole-7-carboxylic acid {(1R,3S,4S)-2-[2-methyl-5-(3-trifluoromethoxy-phenyl)-oxazole-4-carbonyl]-2-aza-bicyclo[2.2.1]hept-3-ylmethyl}-amide] | 37 | 305 | –
15 | Cc1nc(C(=O)N2[C@@H]3CC[C@@H](C3)[C@H]2CNC(=O)c2cccc3cccnc23)c(-c2cccc(Cl)c2)s1 [Example 1, Quinoline-8-carboxylic acid {(1R,3S,4S)-2-[5-(3-chloro-phenyl)-2-methyl-thiazole-4-carbonyl]-2-aza-bicyclo[2.2.1]hept-3-ylmethyl}-amide] | – | – | IC50 [1, 5]: 622 nM; IC50 [2, 5]: 59 nM
16 | Cc1nc2sccn2c1C(=O)NC[C@@H]1[C@H]2CC[C@H](C2)N1C(=O)c1ncsc1-c1ccc(F)cc1 [Example 35, 6-Methyl-imidazo[2,1-b]thiazole-5-carboxylic acid {(1R,3S,4S)-2-[5-(4-fluoro-phenyl)-thiazole-4-carbonyl]-2-aza-bicyclo[2.2.1]hept-3-ylmethyl}-amide] | 808 | 278 | –
17 | CCN(C)c1nc(C(=O)N2[C@H]3CC[C@H](C3)[C@@H]2CNC(=O)c2cccc3ncsc23)c(-c2ccc(F)cc2)s1 [Example 118, Benzothiazole-7-carboxylic acid {(1S,3R,4R)-2-[2-(ethyl-methyl-amino)-5-(4-fluoro-phenyl)-thiazole-4-carbonyl]-2-aza-bicyclo[2.2.1]hept-3-ylmethyl}-amide] | 32 | 117 | –
